Experimental data: PubChem BioAssay (NCI)
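Results reflect a 48-hour exposure of cells in 96-well plates to compound at five concentrations. At the GI50, growth is halved. TGI: total growth inhibition.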

Columns and labels:
Assay in all cases: NCI-60 cell line screen, 48 h
[1] = system: SF-268 CNS
[2] = system: SW-620 colon
[3] = system: U251 CNS
[4] = system: HOP-92 NSCLC
[5] = system: NCI-H522 lung
[6] = system: OVCAR-5 ovarian
[7] = system: RXF 393 renal
[8] = system: HCC-2998 colon
[9] = system: NCI/ADR-RES ovarian
[10] = system: HOP-62 NSCLC

| SMILES | GI50 [1] | TGI [1] | GI50 [2] | TGI [2] | GI50 [3] | TGI [3] | GI50 [4] | TGI [4] | GI50 [5] | TGI [5] | GI50 [6] | TGI [6] | GI50 [7] | TGI [7] | GI50 [8] | TGI [8] | GI50 [9] | TGI [9] | GI50 [10] | TGI [10] |
| --- | --- | --- | --- | --- | --- | --- | --- | --- | --- | --- | --- | --- | --- | --- | --- | --- | --- | --- | --- | --- |
| COc1ccc(/C=C(/c2ccccc2)[N+](=O)[O-])cc1 | 1.82 µM | 3.77 µM | 1.34 µM | 3.18 µM | 1.61 µM | 3.21 µM | 1.08 µM | 2.48 µM | 1.65 µM | 4.16 µM | 1.62 µM | 3.26 µM | 1.35 µM | 2.78 µM | 1.75 µM | 3.22 µM | 1.75 µM | 4.66 µM | 1.82 µM | 3.79 µM |
| CC1C(=O)OC2CC[N+]3([O-])CC=C(COC(=O)C(C)(O)C1(C)O)C23 (stereo not given) |  | > 100 µM |  | > 100 µM |  | > 100 µM |  | > 100 µM |  | > 100 µM |  | > 100 µM |  | > 100 µM |  | > 100 µM |  | > 100 µM |  | > 100 µM |
| COc1ccc2c3c(Nc4ccc(/C(C)=N/O)cc4)[nH]c4ccccc4c-3c(N=O)c2c1 | 1.07 µM | 34.9 µM | 1.36 µM | 2.85 µM | 2.31 µM | 12.9 µM | 13.1 µM | 36 µM | 18.9 µM | 41.9 µM | 3.02 µM | 12.2 µM |  | 0.0372 µM | 1.78 µM | 3.27 µM | 5.78 µM | 20.2 µM | 11.6 µM | 30.9 µM |
| Cc1ccc(Nc2nnc(-c3ccc4c(c3)OCO4)o2)c(C)c1 |  | > 100 µM |  | > 100 µM |  | > 100 µM |  | > 100 µM |  | > 100 µM |  | > 100 µM |  | > 100 µM |  | > 100 µM |  | > 100 µM |  | > 100 µM |
| Nc1ccccc1SC1CC(=O)N(c2ccc(Cl)c(Cl)c2)C1=O (stereo not given) | 29.7 µM | > 100 µM | 56.5 µM | > 100 µM | 21.1 µM | > 100 µM | 14.9 µM | 42.1 µM | 19.4 µM | > 100 µM | > 100 µM | > 100 µM | 14.2 µM | 42.8 µM | 59.6 µM | > 100 µM | 17.1 µM | > 100 µM | 21 µM | 66.7 µM |
| O=C1CSC(c2ccc(-c3nc4ccccc4s3)cc2)=N1 |  |  | 50.5 µM | > 100 µM | 28 µM | > 100 µM | > 100 µM | > 100 µM | 32.9 µM | 96.2 µM | 26.3 µM | > 100 µM | 28.9 µM | > 100 µM | 25.9 µM | 78.5 µM | 50.5 µM | > 100 µM | 43.7 µM | > 100 µM |
| Cn1c(=O)c2c(ncn2CC(=O)Nc2ccc(-c3ccccc3)nn2)n(C)c1=O | > 100 µM | > 100 µM | > 100 µM | > 100 µM | > 100 µM | > 100 µM | > 100 µM | > 100 µM | > 100 µM | > 100 µM | > 100 µM | > 100 µM | 48.3 µM | > 100 µM | > 100 µM | > 100 µM | > 100 µM | > 100 µM | > 100 µM | > 100 µM |
| CCN(CC)c1cc2oc3cc(N)cc(=N)c-3nc2cc1C | 3.26 µM | 18.2 µM | 2.75 µM | 19.5 µM | 3.13 µM | 14.7 µM | 20.2 µM | 79.7 µM | 2.31 µM | 6.05 µM | 2.82 µM | 7.4 µM | 13.1 µM | 26.9 µM | 10 µM | 81.2 µM | 2.29 µM | > 100 µM | 2.91 µM | 9.26 µM |
| CC/C=C/C/C=C/C/C=C/C/C=C/C/C=C/C/C=C/CCC(=O)Nc1ccn([C@@H]2O[C@H](CO)[C@@H](O)C2(F)F)c(=O)n1 | 0.0631 µM | 26.3 µM | 0.148 µM | 47.6 µM | 0.0331 µM | 18.2 µM | 0.652 µM | 30.5 µM | 0.261 µM | 37.7 µM | 2.83 µM | > 60.8 µM | 0.169 µM | 18.3 µM | 14.9 µM | > 64.4 µM | 0.0386 µM | 16.9 µM | 0.0293 µM | 6.55 µM |
| O=C(NCc1ccc(S(=O)(=O)c2cc(F)cc(F)c2)cc1)c1ccc2nccn2c1 | 28.4 µM | > 100 µM | < 0.01 µM | > 100 µM | 6.01 µM | > 56.7 µM | 22.5 µM | > 100 µM | < 0.01 µM | 43 µM | 0.331 µM | > 100 µM | > 44.8 µM | > 72.4 µM | 14.6 µM | > 100 µM | 5.08 µM | > 100 µM | 23 µM | 74 µM |
| O=C(O)C12CC3(C(=O)O)CC(C(=O)O)(CC(C(=O)O)(C1)C3=O)C2=O |  | > 100 µM |  | > 100 µM |  | > 100 µM |  | > 100 µM |  | > 100 µM |  | > 100 µM |  | > 100 µM |  |  |  | > 100 µM |  | > 100 µM |
| CCN(CC)CCNc1ccc2ncn3c4cc(OC)c(OC)c(=O)c4c(O)c1c23 |  | 17.6 µM |  | 16.5 µM |  | 28 µM |  | 24.7 µM |  | 25.9 µM |  | 45.4 µM |  | 6.26 µM |  | 23.2 µM |  | 41.8 µM |  | 28.2 µM |
| O=C(OCc1ccc2c(Cl)cc(Cl)c(O)c2n1)N1CCN(C(=O)c2cc3cc(F)ccc3[nH]2)CC1 | 1.56 µM | > 100 µM | 0.83 µM | > 100 µM | 2.55 µM | > 100 µM | 3.1 µM | > 100 µM | 0.303 µM | > 100 µM | > 37.5 µM | > 100 µM | 3.03 µM | > 100 µM | 3.95 µM | > 94.6 µM | 0.331 µM |  | 1.31 µM | > 100 µM |
| NC(=S)N/N=C/c1cc(-c2cccc(N)c2)ccn1 | 1.02 µM | > 70.7 µM | 3.45 µM | > 81.8 µM | 0.783 µM | > 38.8 µM | 0.314 µM | 40 µM | 0.202 µM | 0.564 µM | 3.96 µM | > 100 µM | 2.32 µM | 42.4 µM | 2.2 µM | > 43.5 µM | 2.68 µM | > 100 µM | 2.44 µM | > 36.9 µM |
